Source: PMC7180948, “New Insights into 4-Anilinoquinazolines as Inhibitors of Cardiac Troponin I–Interacting Kinase (TNNi3K)” (Molecules, 2020)

Legend:
Experiment in all cases: biochemical
Parameters in all cases: KINOMEscan competition binding panel (Eurofins DiscoverX), single concentration, percent inhibition
Settings in all cases: read-out: 15 at 1 µM % inhibition
[1] = target: T1, CDK11 (Homo sapiens, UniProt Q9BWU1)
T1 construct: gene CDK19
In short: (§1)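 Compounds were submitted at 1 µM to a KINOMEscan assay covering more than 400 human kinases. The screen served to define the selectivity profile.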

[2] = target: T2, RSK4(Kin.Dom.1-N-terminal) (Homo sapiens, UniProt Q9UK32)
T2 construct: gene RPS6KA6; Kin.Dom.1-N-terminal
T2 sequence (Q9UK32 whole entry): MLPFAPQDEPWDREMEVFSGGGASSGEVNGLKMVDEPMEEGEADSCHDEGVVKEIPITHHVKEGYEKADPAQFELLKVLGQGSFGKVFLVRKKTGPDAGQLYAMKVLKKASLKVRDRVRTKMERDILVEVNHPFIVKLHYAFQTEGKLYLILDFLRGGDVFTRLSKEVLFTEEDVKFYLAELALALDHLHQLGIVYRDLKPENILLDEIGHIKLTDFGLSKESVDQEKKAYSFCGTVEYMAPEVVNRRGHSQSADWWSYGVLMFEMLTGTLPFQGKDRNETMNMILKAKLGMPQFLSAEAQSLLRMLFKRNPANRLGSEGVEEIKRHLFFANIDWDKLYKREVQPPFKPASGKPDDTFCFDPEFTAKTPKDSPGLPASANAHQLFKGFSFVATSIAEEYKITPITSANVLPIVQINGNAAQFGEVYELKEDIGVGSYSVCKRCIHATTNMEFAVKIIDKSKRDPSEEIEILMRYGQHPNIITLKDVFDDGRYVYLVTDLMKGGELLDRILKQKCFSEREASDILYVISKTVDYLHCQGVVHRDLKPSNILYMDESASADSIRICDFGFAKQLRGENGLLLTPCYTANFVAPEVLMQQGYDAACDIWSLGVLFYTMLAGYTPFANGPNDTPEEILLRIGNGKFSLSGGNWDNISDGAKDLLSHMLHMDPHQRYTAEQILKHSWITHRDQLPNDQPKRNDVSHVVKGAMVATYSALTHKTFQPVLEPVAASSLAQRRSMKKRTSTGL
In short: as §1

[3] = target: TNK1 (Homo sapiens, UniProt Q13470)
In short: as §1

[4] = target: RIOK2 (Homo sapiens, UniProt Q9BVS4)
In short: as §1

[5] = target: ACVRL1 (Homo sapiens, UniProt P37023)
In short: as §1

[6] = target: WNK3 (Homo sapiens, UniProt Q9BYP7)
In short: as §1

[7] = target: TRPM6 (Homo sapiens, UniProt Q9BX84)
Sequence of TRPM6 (Q9BX84 whole entry): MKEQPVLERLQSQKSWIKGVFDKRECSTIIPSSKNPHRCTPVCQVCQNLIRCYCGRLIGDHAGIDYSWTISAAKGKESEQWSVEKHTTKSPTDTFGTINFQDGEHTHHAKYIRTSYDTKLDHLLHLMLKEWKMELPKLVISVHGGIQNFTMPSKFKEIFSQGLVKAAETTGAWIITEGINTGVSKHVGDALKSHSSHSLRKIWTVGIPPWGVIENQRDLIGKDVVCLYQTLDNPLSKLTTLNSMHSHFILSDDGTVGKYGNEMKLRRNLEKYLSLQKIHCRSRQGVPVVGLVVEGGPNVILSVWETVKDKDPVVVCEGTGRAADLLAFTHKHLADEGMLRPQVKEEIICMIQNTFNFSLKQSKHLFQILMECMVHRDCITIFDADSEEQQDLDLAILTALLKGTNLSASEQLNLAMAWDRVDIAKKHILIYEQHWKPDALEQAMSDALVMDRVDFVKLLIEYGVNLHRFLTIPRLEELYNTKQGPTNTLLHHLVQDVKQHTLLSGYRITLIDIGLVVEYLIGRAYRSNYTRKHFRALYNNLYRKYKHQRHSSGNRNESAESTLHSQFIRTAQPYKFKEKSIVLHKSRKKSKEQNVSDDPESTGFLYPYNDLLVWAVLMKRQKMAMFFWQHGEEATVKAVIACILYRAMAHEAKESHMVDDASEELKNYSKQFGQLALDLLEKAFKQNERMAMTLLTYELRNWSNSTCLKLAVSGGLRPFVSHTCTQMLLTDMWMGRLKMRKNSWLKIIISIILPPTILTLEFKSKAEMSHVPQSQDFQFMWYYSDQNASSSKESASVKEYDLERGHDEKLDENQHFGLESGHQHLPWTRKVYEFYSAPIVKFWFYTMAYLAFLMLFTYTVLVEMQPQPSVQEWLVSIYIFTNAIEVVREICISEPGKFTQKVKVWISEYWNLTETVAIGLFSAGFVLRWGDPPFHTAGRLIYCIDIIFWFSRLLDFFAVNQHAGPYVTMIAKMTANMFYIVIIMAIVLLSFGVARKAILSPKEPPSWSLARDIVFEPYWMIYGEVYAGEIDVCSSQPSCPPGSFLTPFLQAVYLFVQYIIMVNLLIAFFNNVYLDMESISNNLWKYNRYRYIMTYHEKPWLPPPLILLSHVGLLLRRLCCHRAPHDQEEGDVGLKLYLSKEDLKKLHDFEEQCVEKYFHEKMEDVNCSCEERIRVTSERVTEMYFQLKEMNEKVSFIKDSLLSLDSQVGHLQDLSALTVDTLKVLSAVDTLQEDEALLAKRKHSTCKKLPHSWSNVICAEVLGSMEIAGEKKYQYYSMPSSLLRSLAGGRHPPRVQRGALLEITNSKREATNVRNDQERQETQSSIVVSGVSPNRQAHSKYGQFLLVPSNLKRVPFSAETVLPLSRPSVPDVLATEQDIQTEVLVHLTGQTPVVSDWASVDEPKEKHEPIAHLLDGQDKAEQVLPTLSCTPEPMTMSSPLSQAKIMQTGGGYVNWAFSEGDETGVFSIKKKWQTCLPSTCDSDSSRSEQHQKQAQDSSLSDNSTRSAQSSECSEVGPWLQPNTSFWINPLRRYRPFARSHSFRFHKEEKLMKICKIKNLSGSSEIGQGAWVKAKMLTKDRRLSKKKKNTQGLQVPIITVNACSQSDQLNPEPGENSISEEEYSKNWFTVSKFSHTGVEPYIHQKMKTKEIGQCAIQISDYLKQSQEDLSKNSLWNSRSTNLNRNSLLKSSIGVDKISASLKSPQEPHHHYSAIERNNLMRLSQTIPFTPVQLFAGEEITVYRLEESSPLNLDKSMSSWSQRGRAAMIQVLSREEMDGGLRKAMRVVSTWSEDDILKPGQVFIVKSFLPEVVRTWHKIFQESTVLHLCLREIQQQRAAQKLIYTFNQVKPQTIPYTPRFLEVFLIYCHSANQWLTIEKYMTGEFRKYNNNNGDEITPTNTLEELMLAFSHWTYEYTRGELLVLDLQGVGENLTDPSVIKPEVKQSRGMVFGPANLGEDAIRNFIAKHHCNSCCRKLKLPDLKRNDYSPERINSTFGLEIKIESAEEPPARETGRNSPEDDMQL
In short: as §1

[8] = target: T3, ABL1(Q252H)-phosphorylated (Homo sapiens, UniProt P00519, Q252H)
T3 construct: phosphorylated
In short: as §1

[9] = target: CHEK1 (Homo sapiens, UniProt O14757)
In short: as §1

[10] = target: MAP3K15 (Homo sapiens, UniProt Q6ZN16)
Sequence of MAP3K15 (Q6ZN16 whole entry): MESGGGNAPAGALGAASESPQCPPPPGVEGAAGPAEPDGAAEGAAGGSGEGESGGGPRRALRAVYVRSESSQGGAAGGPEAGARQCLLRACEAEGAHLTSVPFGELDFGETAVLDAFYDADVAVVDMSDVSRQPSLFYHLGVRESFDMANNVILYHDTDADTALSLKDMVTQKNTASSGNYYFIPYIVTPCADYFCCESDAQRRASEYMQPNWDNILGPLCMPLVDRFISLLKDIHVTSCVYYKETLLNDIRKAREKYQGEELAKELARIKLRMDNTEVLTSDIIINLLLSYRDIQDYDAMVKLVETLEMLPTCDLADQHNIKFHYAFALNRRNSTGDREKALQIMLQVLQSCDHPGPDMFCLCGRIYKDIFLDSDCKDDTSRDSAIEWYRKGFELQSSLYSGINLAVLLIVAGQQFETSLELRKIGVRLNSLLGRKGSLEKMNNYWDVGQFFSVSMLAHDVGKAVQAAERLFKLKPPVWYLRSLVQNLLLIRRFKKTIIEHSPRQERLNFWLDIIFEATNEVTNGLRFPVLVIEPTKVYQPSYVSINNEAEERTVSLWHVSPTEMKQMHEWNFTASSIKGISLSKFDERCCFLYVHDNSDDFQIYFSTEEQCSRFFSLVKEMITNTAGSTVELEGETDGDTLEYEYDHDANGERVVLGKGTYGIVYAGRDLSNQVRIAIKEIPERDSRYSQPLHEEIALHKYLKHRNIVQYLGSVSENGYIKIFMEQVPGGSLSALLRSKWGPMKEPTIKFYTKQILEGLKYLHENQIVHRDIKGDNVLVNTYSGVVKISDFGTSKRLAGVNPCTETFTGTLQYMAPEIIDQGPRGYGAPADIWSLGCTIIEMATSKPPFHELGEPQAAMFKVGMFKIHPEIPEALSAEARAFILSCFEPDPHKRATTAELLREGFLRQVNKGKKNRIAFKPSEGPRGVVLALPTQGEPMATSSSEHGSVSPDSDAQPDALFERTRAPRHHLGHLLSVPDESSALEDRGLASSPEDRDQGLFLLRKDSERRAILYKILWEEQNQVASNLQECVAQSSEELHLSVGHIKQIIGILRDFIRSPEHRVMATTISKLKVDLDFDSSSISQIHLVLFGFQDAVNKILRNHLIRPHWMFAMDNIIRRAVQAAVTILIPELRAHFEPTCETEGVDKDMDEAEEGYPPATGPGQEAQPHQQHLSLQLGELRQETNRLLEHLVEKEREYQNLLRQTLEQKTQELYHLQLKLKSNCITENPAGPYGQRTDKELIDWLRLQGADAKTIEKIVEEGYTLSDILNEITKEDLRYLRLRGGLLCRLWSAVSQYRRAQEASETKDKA
In short: as §1

[11] = target: PIK3CA (Homo sapiens, UniProt P42336)
In short: as §1

[12] = target: HCK (Homo sapiens, UniProt P08631)
In short: as §1

[13] = target: PDGFRB (Homo sapiens, UniProt P09619)
In short: as §1

[14] = target: LIMK2 (Homo sapiens, UniProt P53671)
In short: as §1

[15] = target: T4, PIP5K2C (Homo sapiens, UniProt Q8TBX8)
T4 construct: gene PIP4K2C
In short: as §1

[16] = target: T5, RSK3(Kin.Dom.2-C-terminal) (Homo sapiens, UniProt Q15349)
T5 construct: gene RPS6KA2; Kin.Dom.2-C-terminal
In short: as §1

[17] = target: EPHB6 (Homo sapiens, UniProt O15197)
In short: as §1

[18] = target: PAK3 (Homo sapiens, UniProt O75914)
In short: as §1

[19] = target: T6, MEK6 (Homo sapiens, UniProt P52564)
T6 construct: gene MAP2K6
T6 sequence (P52564 whole entry): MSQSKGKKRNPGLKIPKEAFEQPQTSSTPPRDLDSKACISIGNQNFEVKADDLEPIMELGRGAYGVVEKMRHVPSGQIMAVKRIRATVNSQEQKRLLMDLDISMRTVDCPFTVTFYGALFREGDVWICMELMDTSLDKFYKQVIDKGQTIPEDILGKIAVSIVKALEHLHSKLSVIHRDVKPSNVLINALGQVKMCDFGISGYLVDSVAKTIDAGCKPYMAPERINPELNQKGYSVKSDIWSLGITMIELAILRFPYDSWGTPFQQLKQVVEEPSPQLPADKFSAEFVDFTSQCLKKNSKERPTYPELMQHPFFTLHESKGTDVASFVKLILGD
In short: as §1

[20] = target: ANKK1 (Homo sapiens, UniProt Q8NFD2)
In short: as §1

[21] = target: T7, ARK5 (Homo sapiens, UniProt O60285)
T7 construct: gene NUAK1
T7 sequence (O60285 whole entry): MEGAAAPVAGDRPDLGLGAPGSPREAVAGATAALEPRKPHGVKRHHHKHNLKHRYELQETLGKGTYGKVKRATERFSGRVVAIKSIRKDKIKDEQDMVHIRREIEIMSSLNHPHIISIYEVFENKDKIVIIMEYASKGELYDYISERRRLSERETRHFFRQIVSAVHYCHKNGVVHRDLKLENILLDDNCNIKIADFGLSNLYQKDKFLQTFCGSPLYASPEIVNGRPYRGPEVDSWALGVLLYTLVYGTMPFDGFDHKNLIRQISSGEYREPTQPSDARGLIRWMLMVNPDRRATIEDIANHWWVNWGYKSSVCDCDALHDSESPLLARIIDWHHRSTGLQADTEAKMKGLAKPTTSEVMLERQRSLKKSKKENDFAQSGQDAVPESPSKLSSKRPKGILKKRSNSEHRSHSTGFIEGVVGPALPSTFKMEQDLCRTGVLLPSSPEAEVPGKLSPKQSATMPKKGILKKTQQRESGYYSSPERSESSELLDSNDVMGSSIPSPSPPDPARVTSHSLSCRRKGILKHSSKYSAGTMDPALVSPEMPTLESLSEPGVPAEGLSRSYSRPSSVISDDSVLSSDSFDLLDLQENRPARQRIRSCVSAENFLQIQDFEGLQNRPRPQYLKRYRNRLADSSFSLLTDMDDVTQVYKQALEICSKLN
In short: as §1

[22] = target: RET(V804M) (Homo sapiens, UniProt P07949, V804M)
In short: as §1

[23] = target: MST1R (Homo sapiens, UniProt Q04912)
In short: as §1

[24] = target: PRKX (Homo sapiens, UniProt P51817)
In short: as §1

With `CNS(=O)(=O)c1ccc(N(C)C)c(Nc2nc(C)nc3cc(OC)c(OC)cc23)c1` [compound 15, 3-((6,7-dimethoxy-2-methylquinazolin-4-yl)amino)-4-(dimethylamino)-N-methylbenzenesulfonamide] as the compound, how does the inhibition at 1 µM [1] read?
The inhibition at 1 µM was 13%.

And the inhibition at 1 µM [2]?
Its inhibition at 1 µM is 30%.

What about the inhibition at 1 µM [3] of the same compound?
Its inhibition at 1 µM is 35%.

And the inhibition at 1 µM [4]?
The inhibition at 1 µM was 9%.

And the inhibition at 1 µM [5]?
The inhibition at 1 µM was 0%.

What about the inhibition at 1 µM [6] of the same compound?
Its inhibition at 1 µM is 0%.

And the inhibition at 1 µM [7]?
Its inhibition at 1 µM is 6%.

What about the inhibition at 1 µM [8] of the same compound?
Its inhibition at 1 µM is 34%.

What about the inhibition at 1 µM [9] of the same compound?
Its inhibition at 1 µM is 1%.

And the inhibition at 1 µM [10]?
The inhibition at 1 µM was 28%.

What about the inhibition at 1 µM [11] of the same compound?
The inhibition at 1 µM was 13%.

What about the inhibition at 1 µM [12] of the same compound?
The inhibition at 1 µM was 4%.

What about the inhibition at 1 µM [13] of the same compound?
The inhibition at 1 µM was 10%.

And the inhibition at 1 µM [14]?
Its inhibition at 1 µM is 9%.

What about the inhibition at 1 µM [15] of the same compound?
The inhibition at 1 µM was 18%.

And the inhibition at 1 µM [16]?
Its inhibition at 1 µM is 0%.

And the inhibition at 1 µM [17]?
The inhibition at 1 µM was 0%.

And the inhibition at 1 µM [18]?
The inhibition at 1 µM was 4%.

What about the inhibition at 1 µM [19] of the same compound?
The inhibition at 1 µM was 0%.

What about the inhibition at 1 µM [20] of the same compound?
The inhibition at 1 µM was 24%.

What about the inhibition at 1 µM [21] of the same compound?
Its inhibition at 1 µM is 0%.

What about the inhibition at 1 µM [22] of the same compound?
Its inhibition at 1 µM is 0%.

What about the inhibition at 1 µM [23] of the same compound?
The inhibition at 1 µM was 9%.

And the inhibition at 1 µM [24]?
The inhibition at 1 µM was 0%.
